Experimental data as given in US9844536B2, “3-(1H-imidazo[4,5-C]pyridin-2-yl)-1H-pyrazolo[3,4-C]pyridine and therapeutic uses thereof” (Samumed, LLC, priority 2014, dated 2017).
pEC50, pIC50: −log10 of the molar value.

Key:
Format in all cases: cell-based
[1] = system: Wnt pathway (Sp5-Luc reporter, SW480 cells); assay: Sp5-Luc reporter gene screening assay for Wnt activity in SW480 colon carcinoma cells; conditions: Homo sapiens
Method in brief: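 IC50 values come from variable-slope four-parameter fits of luciferase signal normalized to DMSO wells. Stable Sp5-Luc reporter SW480 colon carcinoma cells were exposed to compounds in a 3-fold dilution series (source plates from 10 mM stock) for forty-two hours at 37 °C.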

[2] = system: primary human mesenchymal stem cells (hMSCs); assay: Chondrogenesis induction screen in primary human mesenchymal stem cells (nodules, Rhodamine B/Nile Red); conditions: 144 h, 6 days; for EC (100% TGF-beta3 activity): concentration required to induce chondrogenesis equivalent to TGF-β3 (10 ng/mL), read-out: Conc (nM) of 100% TGF-β3 activity; for Emax: relative to TGF-β3 (10 ng/mL) positive control, read-out: Max. Activity as % TGF-β3 activity
Protocol: The above synthesized compounds were screened using primary human mesenchymal stem cells (hMSCs) to determine their ability to induce chondrogenesis (process by which cartilage is developed).
Primary human mesenchymal stem cells (hMSCs) were purchased from Lonza (Walkersville, Md.) and expanded in Mesenchymal Stem Cell Growth Media (Lonza). Cells between passage 3 and 6 were used for the experiments.
Each compound was dissolved in DMSO as a 10 mM stock and used to prepare compound source plates. Serial dilution (1:3, 6-point dose-response curves from 2700 nM to 10 nM) and compound transfer was performed using the ECHO 550 (Labcyte, Sunnyvale, Calif.) into 96-well clear bottom assay plates (Greiner Bio-One) with appropriate DMSO backfill for a final DMSO concentration of 0.03%. hMSCs were plated at 20,000 cells/well in 250 μL/well Incomplete Chondrogenic Induction Medium (Lonza; DMEM, dexamethasone, ascorbate, insulin-transferrin-selenium [ITS supplement], gentamycin-amphotericin [GA-1000], sodium pyruvate, proline and L-glutamine). TGF-β3 (10 ng/mL) was used as a positive control for differentiation while negative control wells were treated with 75 nL DMSO for normalization and calculating EC50 values. Cells were incubated at 37° C. and 5% CO2 for 6 days. To image chondrogenic nodules, the cells were fixed using 4% formaldehyde (Electron Microscopy Sciences), and stained with 2 μg/mL Rhodamine B (Sigma-Aldrich) and 20 μM Nile Red (Sigma-Aldrich) [Johnson K., et. al, A Stem Cell-Based Approach to Cartilage Repair, Science, (2012), 336(6082), 717-721]. The nodules imaged (4 images per well at 4× magnification) by excitation at 531 nm and emission at 625 nm and quantified using the CellInsight CX5 (Thermo Scientific). Number of nodules in each well was normalized to the average of 3 DMSO treated wells on the same plate using Excel (Microsoft Inc.). The normalized averages (fold change over DMSO) of 3 replicate wells for each compound concentration were calculated. Due to solubility limitations of some of the compounds, curve fitting was incomplete leading to inaccurate EC50 determinations.
Using TGF-03 as a positive control, the concentration of test compounds required to induce equivalent levels of chondrogenesis is reported. In addition, the maximum activity of each compound and the respective dose that each compound reached maximum chondrogenesis activity is reported.

LL29 cells = assay: Inhibition of the fibrotic process (αSMA staining) in TGF-β1 treated primary human fibroblasts from IPF patients; conditions: Fibroblast, 96 h, TGF-β1 20 ng/mL, 4 days, dose-response 10 μM to 1.87 nM, read-out: Inhibition of fibrosis EC50
Method in brief: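 LL29 IPF lung fibroblasts in 1% FBS were stimulated with TGF-β1 (20 ng/mL) and treated 4 days at 37 °C with compound (11 points, 10 μM–1.87 nM, 0.1% DMSO). The % αSMA-positive cells, imaged after excluding SYTOX-positive dead cells, was normalized to TGF-β1/DMSO wells. EC50 came from nonlinear regression over triplicates.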

ARPE-19 cells = assay: Transdifferentiation of ARPE-19 cells into eye neuronal cells [photoreceptors], PAX6 staining; conditions: Homo sapiens, fixed at 40 hours, PAX6 antibody staining, normalized to DMSO
Protocol: The above synthesized compounds were screened using ARPE-19 cells [a spontaneously arising retinal pigment epithelia (RPE) cell line] to determine their ability to transdifferentiate ARPE-19 into eye neuronal cells [photoreceptors].
ARPE-19 cells are cultured in standard culture medium containing Dulbecco's Modified Eagle's Medium and Ham's F12 Nutrient Mixture (DMEM/F12) mix (1:1)+GlutaMax with 1% penicillin-Streptomycin and 10% FBS (Fetal Bovine Serum). Cells are incubated at 37° C. with 5% CO2. Cells are trypsinized and plated onto 384-well pre-spotted plate at a density of 3000 cells/well in 50 uL of media. Plating media: DMEM/F12 (1:1)+3% charcoal filtered-FBS+GlutaMax+1% pen/Strep. Cells are incubated at 37° C. with 5% CO2. At 40 hours, cells were fixed for 15 min with 10% Buffered Formalin. Cells were then washed 3 times with PBS for 5 min each, permeablize using 0.3% Triton X-100 in 1×PBS for 30 min, block for 1 hr with 2% BSA in 1×PBS with 0.1% Triton X-100. The primary antibody (1:100 PAX6 Santa Cruz Biotech; sc-81649) was diluted and 10 μL/well was added to the cells. The cells were incubated overnight at 4° C. […] Readings were normalized to DMSO only treated cells, and normalized activities were utilized for EC50 calculations using the dose-response log (activator) vs. response-variable slope (four parameters) nonlinear regression feature available in GraphPad Prism 5.0 or 6.0.

pIC50 [1]	SMILES	EC (100% TGF-beta3 activity) [2] [nM]	pEC50 (LL29 cells)	Emax [2] [%]	pEC50 (ARPE-19 cells)
8.26	CC(=O)c1ccc(-c2nccc3[nH]c(-c4n[nH]c5cnc(-c6cccnc6)cc45)nc23)s1 [Compound 394, 1-(5-(2-(5-(Pyridin-3-yl)-1H-pyrazolo[3,4-c]pyridin-3-yl)-1H-imidazo[4,5-c]pyridin-4-yl)thiophen-2-yl)ethan-1-one]	142	7.85	10	
8.00	Cc1ccncc1-c1cc2c(-c3nc4c(-c5cc(F)cc(CNS(C)(=O)=O)c5)nccc4[nH]3)n[nH]c2cn1 [Compound 421, N-(3-Fluoro-5-(2-(5-(4-methylpyridin-3-yl)-1H-pyrazolo[3,4-c]pyridin-3-yl)-1H-imidazo[4,5-c]pyridin-4-yl)benzyl)methanesulfonamide]	122	< 5.00	10	
8.00	Cn1cc(-c2cc3c(-c4nc5c(-c6cccc(F)c6)nccc5[nH]4)n[nH]c3cn2)cn1 [Compound 940, 3-(4-(3-Fluorophenyl)-1H-imidazo[4,5-c]pyridin-2-yl)-5-(1-methyl-1H-pyrazol-4-yl)-1H-pyrazolo[3,4-c]pyridine]	110	≥ 8.05	100	
7.34	NC1CN(c2cncc(-c3cc4c(-c5nc6c(-c7cccc(F)c7)nccc6[nH]5)n[nH]c4cn3)n2)C1 [Compound 942, 1-(6-(3-(4-(3-Fluorophenyl)-1H-imidazo[4,5-c]pyridin-2-yl)-1H-pyrazolo[3,4-c]pyridin-5-yl)pyrazin-2-yl)azetidin-3-amine]		6.52		8.30
7.00	CN(C)CCOc1cncc(-c2cc3c(-c4nc5c(-c6cccc(F)c6)nccc5[nH]4)n[nH]c3cn2)c1 [Compound 947, 2-((5-(3-(4-(3-Fluorophenyl)-1H-imidazo[4,5-c]pyridin-2-yl)-1H-pyrazolo [3,4-c]pyridin-5-yl)pyridin-3-yl)oxy)-N,N-dimethylethan-1-amine]		6.32		7.46
8.00	COc1cncc(-c2cc3c(-c4nc5c(-c6cccc(F)c6)nccc5[nH]4)n[nH]c3cn2)c1 [Compound 948, 3-(4-(3-Fluorophenyl)-1H-imidazo[4,5-c]pyridin-2-yl)-5-(5-methoxypyridin-3-yl)-1H-pyrazolo[3,4-c]pyridine]	174	≥ 8.05	900	

Second part, the compound before the results:

SMILES	pIC50 [1]	EC (100% TGF-beta3 activity) [2] [nM]	pEC50 (LL29 cells)	Emax [2] [%]	pEC50 (ARPE-19 cells)
Nc1cncc(-c2cc3c(-c4nc5c(-c6ccccc6F)nccc5[nH]4)n[nH]c3cn2)c1 [Compound 55, 5-(3-(4-(2-Fluorophenyl)-1H-imidazo[4,5-c]pyridin-2-yl)-1H-pyrazolo[3,4-c]pyridin-5-yl)pyridin-3-amine]	7.78	145	≥ 8.05		
FC1(F)CCN(Cc2cncc(-c3cc4c(-c5nc6c(N7CCCCC7)nccc6[nH]5)n[nH]c4cn3)c2)C1 [Compound 181, 5-(5-((3,3-Difluoropyrrolidin-1-yl)methyl)pyridin-3-yl)-3-(4-(piperidin-1-yl)-1H-imidazo[4,5-c]pyridin-2-yl)-1H-pyrazolo[3,4-c]pyridine]	7.21	68.1	6.85		
CCNCc1cncc(-c2cc3c(-c4nc5c(-c6ccsc6)nccc5[nH]4)n[nH]c3cn2)c1 [Compound 266, N-((5-(3-(4-(Thiophen-3-yl)-1H-imidazo[4,5-c]pyridin-2-yl)-1H-pyrazolo[3,4-c]pyridin-5-yl)pyridin-3-yl)methyl)ethanamine]	7.95	67.7	≥ 8.05	30	
CC(C)Nc1cncc(-c2cc3c(-c4nc5c(-c6ccoc6)nccc5[nH]4)n[nH]c3cn2)c1 [Compound 298, 5-(3-(4-(Furan-3-yl)-1H-imidazo[4,5-c]pyridin-2-yl)-1H-pyrazolo[3,4-c]pyridin-5-yl)-N-isopropylpyridin-3-amine]	7.82	219	7.19	300	
O=C(Nc1cncc(-c2cc3c(-c4nc5c(-c6cccs6)nccc5[nH]4)n[nH]c3cn2)c1)C1CC1 [Compound 331, N-(5-(3-(4-(Thiophen-2-yl)-1H-imidazo[4,5-c]pyridin-2-yl)-1H-pyrazolo[3,4-c]pyridin-5-yl)pyridin-3-yl)cyclopropanecarboxamide]	7.79	68.4	≥ 8.05		
CC(C)(C)C(=O)Nc1cncc(-c2cc3c(-c4nc5c(-c6ccc(F)s6)nccc5[nH]4)n[nH]c3cn2)c1 [Compound 346, N-(5-(3-(4-(5-Fluorothiophen-2-yl)-1H-imidazo[4,5-c]pyridin-2-yl)-1H-pyrazolo[3,4-c]pyridin-5-yl)pyridin-3-yl)pivalamide]	7.90	40.9	≥ 8.05		
Cc1ccc(-c2nccc3[nH]c(-c4n[nH]c5cnc(-c6cncc(N)c6)cc45)nc23)s1 [Compound 367, 5-(3-(4-(5-Methylthiophen-2-yl)-1H-imidazo[4,5-c]pyridin-2-yl)-1H-pyrazolo[3,4-c]pyridin-5-yl)pyridin-3-amine]	8.68	259	≥ 8.05	10	
